Source: patent US20250230138A1, “COMPOUNDS HAVING A T-STRUCTURE FORMED BY AT LEAST FOUR CYCLES FOR USE IN THE TREATMENT OF CANCER AND OTHER INDICATIONS” (TheRas, Inc., priority 2022, published 2025)
pIC50: −log10 of the molar value. Where two headings read alike, the source gives them in different places.

Tests used:
[1] = target: Cys242 in human PIK3CA (157-299) (Homo sapiens (Human), UniProt P42336); experiment: Covalent modification assay using MALDI-TOF MS; assay type: biochemical; settings: 4 h reaction time point
In short: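 PIK3CA (157-299) at 3.33 μM or 1 μM in 20 mM HEPES, 150 mM NaCl, 2 mM MgCl2, pH 7.3 was incubated with compound (from 10 mM DMSO stocks) in the dark at room temperature for 15 min, 30 min, 2 h or 4 h. Linear-mode MALDI-TOF peak heights gave percent modification.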

pAKT in BT474 cells = experiment: Cell-based pAKT HTRF assay in BT474 cells; settings: BT474 cells, 4 hr incubation, read-out: pAKT inhibition IC50 in BT474 cells
In short: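 pAKT was measured by HTRF after a 4 hr compound exposure in BT474 cells (DMEM, 10% FBS, 0.25% DMSO), using 9 concentrations from 3 μM in 3-fold steps. Cell lysates were incubated with the Eu cryptate/d2 antibody pair at room temperature for 4 to 24 h. The plate was then read at 320 nm excitation and 615 nm emission.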

[2] = 3.33 μM protein target, 1:7.5 protein to compound ratio (compounds 1-852)
[3] = 1 μM protein target, 1:5 protein to compound ratio (compounds 853-1279)
[4] = Homo sapiens, BT-474, Compounds 10-999

Sequence of Cys242 in human PIK3CA (157-299) (P42336 157-299): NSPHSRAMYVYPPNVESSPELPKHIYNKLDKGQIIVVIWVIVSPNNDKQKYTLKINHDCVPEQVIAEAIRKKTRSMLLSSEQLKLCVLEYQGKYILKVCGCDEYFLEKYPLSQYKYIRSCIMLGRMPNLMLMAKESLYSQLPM

## C=CC(=O)N1CCc2nc(-c3nc(-c4cnc5c(c4)CNC(=O)C5)c4ccsc4c3-c3c(F)cc(F)cc3OC(C)C)sc2C1 (single isomer, unassigned) [Compound 588]
[1]; [2]
  % of modification: A (percent of modification of PIK3CA protein ≥75%)
pAKT in BT474 cells; Compounds 10-999
  pIC50: > 7.00

## C=CC(=O)N1CCn2nc(-c3nc(-c4ccc5c(c4)C(=O)N(C)C5)c4ccsc4c3-c3c(F)cc(F)cc3OCCO)cc2C1C (stereo not drawn) [Compound 867]
[1]; [3]
  % of modification: A (percent of modification of PIK3CA protein ≥75%)
pAKT in BT474 cells; Compounds 10-999
  pIC50: > 7.00

## C=CC(=O)N1CC[C@@H](n2cc(-c3nc(-c4ccn(C)c(=O)c4)c4ccsc4c3-c3c(F)cc(F)cc3OC(C)C)cn2)C1 [Compound 386]
[1]; [2]
  % of modification: A (percent of modification of PIK3CA protein ≥75%)
pAKT in BT474 cells; Compounds 10-999
  pIC50: > 7.00

## C=C(F)C(=O)N1CCn2nc(-c3nc(-c4ccc5c(c4)CNC5=O)c4ccsc4c3-c3c(Cl)cccc3OC(C)C)cc2C1 [Compound 472]
[1]; [2]
  % of modification: B (50%<percent of modification <75%)
pAKT in BT474 cells; Compounds 10-999
  pIC50: 6.00 to 7.00

## C=CC(=O)N1CC[C@H](n2cc(-c3nc(-c4ccc5c(c4)CCNC5)c4ccsc4c3-c3ccc(F)cc3OCC3CCNC(=O)C3)ccc2=O)C1 (stereo partly drawn) [Compound 214]
[1]; [2]
  % of modification: A (percent of modification of PIK3CA protein ≥75%)
pAKT in BT474 cells; Compounds 10-999
  pIC50: 6.00 to 7.00

## C=CC(=O)N1Cc2cc(-c3nc(-c4ccc5c(cnn5C)c4)c4ccsc4c3-c3c(F)cc(F)cc3OCC(C)(C)O)nn2[C@@H](C)C1 [Compound 848]
[1]; [2]
  % of modification: A (percent of modification of PIK3CA protein ≥75%)
pAKT in BT474 cells; Compounds 10-999
  pIC50: > 7.00

## C=CC(=O)N1CCn2nc(-c3nc(-c4ccc5cn(C)nc5c4)c4ccsc4c3-c3c(F)cc(F)cc3OC[C@@H](C)O)cc2[C@@H]1C [Compound 770, 1-((S)-2-((S)-7-(2,4-difluoro-6-((R)-2-hydroxypropoxy)phenyl)-4-(2-methyl-2H-indazol-6-yl)thieno[3,2-c]pyridin-6-yl)-4-methyl-6,7-dihydropyrazolo[1,5-a]pyrazin-5(4H)-yl)prop-2-en-1-one]
[1]; [2]
  % of modification: A (percent of modification of PIK3CA protein ≥75%)
pAKT in BT474 cells; Compounds 10-999
  pIC50: > 7.00

## C=CC(=O)N1CCn2nc(-c3nc(-c4ccc5c(c4)CCN(C)C5)c4ccsc4c3-c3c(F)cc(F)cc3OC3CC3)cc2C1C (stereo not drawn) [Compound 549]
[1]; [2]
  % of modification: A (percent of modification of PIK3CA protein ≥75%)
pAKT in BT474 cells; Compounds 10-999
  pIC50: > 7.00

## C=CC(=O)N1CC(n2cc(-c3nc(N4CCc5n[nH]c(=O)cc5C4)c4ccsc4c3-c3ccc(F)cc3OCCOC)cn2)C1 [Compound 158]
[1]; [2]
  % of modification: A (percent of modification of PIK3CA protein ≥75%)
pAKT in BT474 cells; Compounds 10-999
  pIC50: 6.00 to 7.00

## C=CC(=O)N1CCC(n2cc(-c3nc(-c4ccc5c(c4)CCNC5)c4ccsc4c3-c3ccc(F)cc3OCCOC)ccc2=O)CC1 [Compound 181]
[1]; [2]
  % of modification: A (percent of modification of PIK3CA protein ≥75%)
pAKT in BT474 cells; Compounds 10-999
  pIC50: 6.00 to 7.00

## C=CC(=O)N1CCn2nc(-c3nc(-c4ccc5cnncc5c4)c4ccsc4c3-c3c(F)cc(F)cc3OCCO)cc2C1C (stereo not drawn) [Compound 660]
[1]; [2]
  % of modification: C (25%≤percent of modification <50%)
pAKT in BT474 cells; Compounds 10-999
  pIC50: 6.00 to 7.00

## C=CC(=O)N1CCn2nc(-c3nc(-c4ccn(C)c(=O)c4)c4ccsc4c3-c3c(F)cc(F)cc3OCCOC)cc2C1C (stereo not drawn) [Compound 986]
[1]; [3]
  % of modification: A (percent of modification of PIK3CA protein ≥75%)
pAKT in BT474 cells; Compounds 10-999
  pIC50: > 7.00

## C=CC(=O)N1Cc2cc(-c3nc(-c4ccc5c(cnn5C)c4)c4ccsc4c3-c3c(F)cc(F)cc3OC[C@@H](C)O)nn2C[C@H]1C [Compound 725]
[1]; [2]
  % of modification: A (percent of modification of PIK3CA protein ≥75%)
pAKT in BT474 cells; Compounds 10-999
  pIC50: > 7.00

## C=CC(=O)N1CCn2nc(-c3nc(-c4ccc5c(cnn5C)c4)c4ccsc4c3-c3c(F)cc(F)cc3OCC(C)O)cc2C1C (stereo not drawn) [Compound 767]
[1]; [2]
  % of modification: A (percent of modification of PIK3CA protein ≥75%)
pAKT in BT474 cells; Compounds 10-999
  pIC50: > 7.00

## C=CC(=O)N1CCc2nc(-c3nc(-c4ccc5c(cnn5C)c4)c4ccsc4c3-c3c(F)cc(F)cc3OCCO)sc2C1 [Compound 1032]
[1]; [3]
  % of modification: D (percent of modification <25%)
pAKT in BT474 cells; Compounds 1000-1279
  pIC50: < 6.00

## C=CC(=O)N1CCn2nc(-c3nc(-c4ccc5c(c4)[C@H](O)CC5)c4ccsc4c3-c3ccc(F)cc3OCCOC)cc2C1 [Compound 257]
[1]; [2]
  % of modification: A (percent of modification of PIK3CA protein ≥75%)
pAKT in BT474 cells; Compounds 10-999
  pIC50: > 7.00

## C=CC(=O)N1CCn2nc(-c3nc(-c4cnn(C)c4)ccc3-c3ccc(F)cc3OC(C)C)cc2C1 [Compound 279, 1-[2-[3-(4-fluoro-2-isopropoxy-phenyl)-6-(1-methylpyrazol-4-yl)-2-pyridyl]-6,7-dihydro-4H-pyrazolo[1,5-a]pyrazin-5-yl]prop-2-en-1-one]
[1]; [2]
  % of modification: A (percent of modification of PIK3CA protein ≥75%)
pAKT in BT474 cells; [4]
  pIC50: 6.00 to 7.00

## C=CC(=O)N1CCc2nc(-c3nc(-c4ccc5c(c4)CCNC5)c4ccsc4c3-c3ccc(F)cc3OC(C)C)sc2C1 [Compound 155]
[1]; [2]
  % of modification: A (percent of modification of PIK3CA protein ≥75%)
pAKT in BT474 cells; Compounds 10-999
  pIC50: > 7.00

## C=CC(=O)N1Cc2cc(-c3nc(-c4ccc5c(c4)CN(C)C5=O)c4ccsc4c3-c3c(F)cc(F)cc3OCCOC)nn2C[C@H]1C [Compound 795]
[1]; [2]
  % of modification: A (percent of modification of PIK3CA protein ≥75%)
pAKT in BT474 cells; Compounds 10-999
  pIC50: > 7.00

## C=CC(=O)N1CCn2nc(-c3nc(-c4ccc5c(c4)CCN(C)CC5)c4ccsc4c3-c3c(F)cc(F)cc3OCCOC)cc2C1C (stereo not drawn) [Compound 994]
[1]; [3]
  % of modification: D (percent of modification <25%)
pAKT in BT474 cells; Compounds 10-999
  pIC50: 6.00 to 7.00

## C=CC(=O)N1CCn2nc(-c3nc(-c4ccc5c(c4)CN(CC(F)F)CC5)c4ccsc4c3-c3c(F)cc(F)cc3OCCOC)cc2C1C (stereo not drawn) [Compound 1248]
[1]; [3]
  % of modification: A (percent of modification of PIK3CA protein ≥75%)
pAKT in BT474 cells; Compounds 1000-1279
  pIC50: 6.00 to 7.00

## C=CC(=O)N1Cc2cc(-c3nc(-c4cnn(C)c4)c4ccsc4c3-c3c(F)cc(F)cc3OC(C)C)nn2C[C@H]1C [Compound 456, 1-((R)-2-((R)-7-(2,4-difluoro-6-isopropoxyphenyl)-4-(1-methyl-1H-pyrazol-4-yl)thieno[3,2-c]pyridin-6-yl)-6-methyl-6,7-dihydropyrazolo[1,5-a]pyrazin-5(4H)-yl)prop-2-en-1-one]
[1]; [2]
  % of modification: D (percent of modification <25%)
pAKT in BT474 cells; Compounds 10-999
  pIC50: < 5.52

## C=CC(=O)N1CC(n2cc(-c3nc(C4CCC5(CC4)CNC5)c4ccsc4c3-c3ccc(F)cc3OCCOC)cn2)C1 [Compound 147]
[1]; [2]
  % of modification: A (percent of modification of PIK3CA protein ≥75%)
pAKT in BT474 cells; Compounds 10-999
  pIC50: 5.52 to 6.00

## C=CC(=O)N1CCC(n2cc(-c3nc(-c4ccc5c(c4)CS(=O)(=O)C5)c4ccsc4c3-c3ccc(F)cc3OCCOC)cn2)CC1 [Compound 61]
[1]; [2]
  % of modification: A (percent of modification of PIK3CA protein ≥75%)
pAKT in BT474 cells; Compounds 10-999
  pIC50: > 7.00

## C=CC(=O)N1Cc2cc(-c3nc(-c4ccc5c(c4)CCN(C)C5)c4ccsc4c3-c3c(F)cc(F)cc3OC(C)C)cnc2C[C@H]1C [Compound 476, 1-((7R)-3-(7-(2,4-difluoro-6-isopropoxyphenyl)-4-(2-methyl-1,2,3,4-tetrahydroisoquinolin-6-yl)thieno[3,2-c]pyridin-6-yl)-7-methyl-7,8-dihydro-1,6-naphthyridin-6(5H)-yl)prop-2-en-1-one]
[1]; [2]
  % of modification: A (percent of modification of PIK3CA protein ≥75%)
pAKT in BT474 cells; [4]
  pIC50: 6.00 to 7.00

## C=CC(=O)N1CCc2ccc(-c3nc(-c4cnc5c(c4)CNC(=O)C5)c4ccsc4c3-c3c(F)cc(F)cc3OCCOC)cc2C1 [Compound 580, (S)-3-(6-(2-acryloyl-1,2,3,4-tetrahydroisoquinolin-7-yl)-7-(2,4-difluoro-6-(2-methoxyethoxy)phenyl)thieno[3,2-c]pyridin-4-yl)-5,8-dihydro-1,6-naphthyridin-7(6H)-one]
[1]; [2]
  % of modification: A (percent of modification of PIK3CA protein ≥75%)
pAKT in BT474 cells; Compounds 10-999
  pIC50: > 7.00

## C=CC(=O)N1CCc2ncc(-c3nc(N4CCN(C(C)C)CC4)c4ccsc4c3-c3c(F)cc(F)cc3OC(C)C)cc2C1 [Compound 373]
[1]; [2]
  % of modification: A (percent of modification of PIK3CA protein ≥75%)
pAKT in BT474 cells; Compounds 10-999
  pIC50: 6.00 to 7.00

## C=CC(=O)N1CCn2nc(-c3nc(-c4ccc5ncc(=O)n(C)c5c4)c4ccsc4c3-c3c(F)cc(F)cc3OCCO)cc2[C@H]1C [Compound 979]
[1]; [3]
  % of modification: A (percent of modification of PIK3CA protein ≥75%)
pAKT in BT474 cells; Compounds 10-999
  pIC50: > 7.00

## C=CC(=O)N1CCc2nc(-c3nc(-c4ccc5c(c4)CCN(C)C5)c4ccsc4c3-c3c(F)cc(F)cc3OC(C)C)sc2C1 (single isomer, unassigned) [Compound 447]
[1]; [2]
  % of modification: D (percent of modification <25%)
pAKT in BT474 cells; Compounds 10-999
  pIC50: 6.00 to 7.00

## C=CC(=O)N1CCn2nc(-c3nc(-c4cnn(C)c4)c4ccsc4c3-c3c(F)cc(F)cc3OCCO)cc2[C@H]1C [Compound 641]
[1]; [2]
  % of modification: C (25%≤percent of modification <50%)
pAKT in BT474 cells; Compounds 10-999
  pIC50: 6.00 to 7.00

## C=CC(=O)N1CCn2nc(-c3nc(-c4ccc5cnn(C)c(=O)c5c4)c4ccsc4c3-c3c(F)cc(F)cc3OCCOC)cc2C1C (stereo not drawn) [Compound 928]
[1]; [3]
  % of modification: A (percent of modification of PIK3CA protein ≥75%)
pAKT in BT474 cells; Compounds 10-999
  pIC50: > 7.00

## C=CC(=O)N1CCn2nc(-c3nc(-c4ccc(CC(=O)N(C)C)cc4)c4ccsc4c3-c3c(F)cc(F)cc3OCCOC)cc2C1C (stereo not drawn) [Compound 1090]
[1]; [3]
  % of modification: A (percent of modification of PIK3CA protein ≥75%)
pAKT in BT474 cells; Compounds 1000-1279
  pIC50: > 7.00

## C=CC(=O)N1CCc2ccc(-c3nc(-c4cnc(N5CCN(C)CC5)nc4)c4ccsc4c3-c3c(F)cc(F)cc3OCCOC)cc2C1 [Compound 1069]
[1]; [3]
  % of modification: D (percent of modification <25%)
pAKT in BT474 cells; Compounds 1000-1279
  pIC50: < 6.00
